“And” between values parts separate entries of the source, which are not always exact repeats. Identical values can stand only once. Like-named read-outs stand apart in the source and are kept apart here.
How the values were obtained:
[1] = system: carrageenan-induced paw edema; experiment: Carrageenan-induced mouse paw edema model; format: in vivo
CXCR4 = CXCR4 (Homo sapiens, UniProt P61073); experiment: In vitro binding assay
Chain of CXCR4 (P61073 whole entry): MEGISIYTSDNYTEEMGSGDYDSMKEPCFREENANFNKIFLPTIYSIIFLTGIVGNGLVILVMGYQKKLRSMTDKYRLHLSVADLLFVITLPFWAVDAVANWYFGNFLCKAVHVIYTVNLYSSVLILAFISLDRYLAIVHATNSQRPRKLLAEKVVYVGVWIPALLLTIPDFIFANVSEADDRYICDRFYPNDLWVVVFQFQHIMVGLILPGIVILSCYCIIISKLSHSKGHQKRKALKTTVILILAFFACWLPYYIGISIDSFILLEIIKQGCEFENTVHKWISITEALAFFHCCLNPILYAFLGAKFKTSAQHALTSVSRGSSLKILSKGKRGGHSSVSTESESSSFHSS

Structure (SMILES)	Reduction of edema (paw) weight ([1]; 10 mg/kg i.p. once daily, 74 h after carrageenan, n = 5, versus untreated mice)	Histology / immunohistochemistry of paw tissue ([1]; 10 mg/kg i.p., H&E and anti-CXCR4 staining)	EC50 (CXCR4) [nM]	IC50 (CXCR4) [nM]	EC50 (CXCR4; read-out: Binding Affinity (EC), EC = concentration at which the compound blocks > 50% of rhodamine Red X-TN14003, MDA-MB-231 cells, tested at 1, 10, 100, 1000 nM) [nM]
N=C(N)NCCC[C@H](N)C(=O)NC1CCN(C(=O)CCn2ccc3ccncc32)CC1 [Z7R]	50% and ~ 50%	observable decrease in the number of inflammatory cells	1	1.25	–
NC(C(=O)NC1CCN(C(=O)CCn2ccc3ccncc32)CC1)c1ccccc1 (centres unmarked) [ZINC72372983]	–	–	–	–	100

— article PMC7422936 (European journal of medicinal chemistry, 2020)
